PubChem BioAssay (NCI)
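1) Cells in 96-well plates. 2) Compound, 48 h, 5 concentrations. 3) Linear interpolation between surrounding doses. 4) Unreached endpoint = highest concentration. GI50: concentration for 50% inhibition of growth. TGI: concentration producing complete growth inhibition.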

What was measured:
Test in all cases: growth of human tumour cells (NCI), 48 h
EKVX NSCLC = system: EKVX NSCLC
HL-60(TB) leukemia = system: HL-60(TB) leukemia
HOP-62 NSCLC = system: HOP-62 NSCLC
KM12 colon = system: KM12 colon
M14 melanoma = system: M14 melanoma
NCI-H522 lung = system: NCI-H522 lung
SK-MEL-5 melanoma = system: SK-MEL-5 melanoma
SN12C renal = system: SN12C renal
SNB-75 CNS = system: SNB-75 CNS
SW-620 colon = system: SW-620 colon

SMILES: CC(C)(C)[Si](C)(C)OCC1OC(n2cnc3c(=O)[nH]cnc32)CC1O (stereo not given)
- TGI (EKVX NSCLC): > 100 µM
- TGI (HL-60(TB) leukemia): > 100 µM
- TGI (HOP-62 NSCLC): > 100 µM
- TGI (KM12 colon): > 100 µM
- TGI (M14 melanoma): > 100 µM
- TGI (NCI-H522 lung): > 100 µM
- TGI (SK-MEL-5 melanoma): > 100 µM
- TGI (SN12C renal): > 100 µM
- TGI (SNB-75 CNS): > 100 µM
- TGI (SW-620 colon): > 100 µM

SMILES: NC(=O)c1c(NC(=O)c2cccs2)sc2c1CCC(=O)C2
- GI50 (EKVX NSCLC): 2.54 µM
- TGI (EKVX NSCLC): 87.1 µM
- GI50 (HL-60(TB) leukemia): 2.45 µM
- TGI (HL-60(TB) leukemia): 7.13 µM
- GI50 (HOP-62 NSCLC): 3.65 µM
- TGI (HOP-62 NSCLC): > 100 µM
- GI50 (KM12 colon): 2.18 µM
- TGI (KM12 colon): 9.52 µM
- GI50 (M14 melanoma): 3.73 µM
- TGI (M14 melanoma): > 100 µM
- GI50 (NCI-H522 lung): 0.892 µM
- TGI (NCI-H522 lung): 7.92 µM
- GI50 (SK-MEL-5 melanoma): 1.62 µM
- TGI (SK-MEL-5 melanoma): 3.19 µM
- GI50 (SN12C renal): 2.95 µM
- TGI (SN12C renal): > 100 µM
- GI50 (SNB-75 CNS): 1.7 µM
- TGI (SNB-75 CNS): 9.05 µM
- GI50 (SW-620 colon): 0.809 µM
- TGI (SW-620 colon): 16.8 µM

SMILES: CCOC(=O)C1=C(C)NC(=O)NC1c1ccc(OC)cc1OC (stereo not given)
- TGI (EKVX NSCLC): > 100 µM
- TGI (HL-60(TB) leukemia): > 100 µM
- TGI (HOP-62 NSCLC): > 100 µM
- TGI (KM12 colon): > 100 µM
- TGI (M14 melanoma): > 100 µM
- TGI (NCI-H522 lung): > 100 µM
- TGI (SK-MEL-5 melanoma): > 100 µM
- TGI (SN12C renal): > 100 µM
- TGI (SNB-75 CNS): > 100 µM
- TGI (SW-620 colon): > 100 µM

SMILES: Nc1cccc2c1-c1c(cccc1[N+](=O)[O-])C2=O
- TGI (EKVX NSCLC): > 100 µM
- TGI (HL-60(TB) leukemia): > 100 µM
- TGI (HOP-62 NSCLC): > 100 µM
- TGI (KM12 colon): > 100 µM
- TGI (M14 melanoma): > 100 µM
- TGI (NCI-H522 lung): > 100 µM
- TGI (SK-MEL-5 melanoma): > 100 µM
- TGI (SN12C renal): > 100 µM
- TGI (SNB-75 CNS): > 100 µM
- TGI (SW-620 colon): > 100 µM

SMILES: CCc1nc(C)cn1C(=O)OCc1nc2nc(Cl)nc(N3CCOCC3)c2[nH]1
- GI50 (EKVX NSCLC): 1.43 µM
- TGI (EKVX NSCLC): 3.07 µM
- GI50 (HL-60(TB) leukemia): 0.451 µM
- TGI (HL-60(TB) leukemia): 3.15 µM
- GI50 (HOP-62 NSCLC): 1.54 µM
- TGI (HOP-62 NSCLC): 3.56 µM
- GI50 (KM12 colon): 1.56 µM
- TGI (KM12 colon): 3.29 µM
- GI50 (M14 melanoma): 1.27 µM
- TGI (M14 melanoma): 3.1 µM
- GI50 (NCI-H522 lung): 1.37 µM
- TGI (NCI-H522 lung): 3.37 µM
- GI50 (SK-MEL-5 melanoma): 1.64 µM
- TGI (SK-MEL-5 melanoma): 3.01 µM
- GI50 (SN12C renal): 1.35 µM
- TGI (SN12C renal): 2.74 µM
- GI50 (SNB-75 CNS): 0.579 µM
- TGI (SNB-75 CNS): 2.06 µM
- GI50 (SW-620 colon): 1.11 µM
- TGI (SW-620 colon): 2.69 µM

SMILES: N#C/C(=C\c1c(O)cc(O)cc1O)C(N)=O
- TGI (EKVX NSCLC): > 100 µM
- TGI (HL-60(TB) leukemia): > 100 µM
- TGI (HOP-62 NSCLC): > 100 µM
- TGI (KM12 colon): > 100 µM
- TGI (M14 melanoma): > 100 µM
- TGI (NCI-H522 lung): > 100 µM
- TGI (SK-MEL-5 melanoma): > 100 µM
- TGI (SN12C renal): > 100 µM
- TGI (SNB-75 CNS): > 100 µM
- TGI (SW-620 colon): > 100 µM

SMILES: O=C(/C=C/c1ccc(Cl)c(Cl)c1)c1ccccc1Cl
- TGI (EKVX NSCLC): 31.4 µM
- TGI (HL-60(TB) leukemia): 16.7 µM
- TGI (HOP-62 NSCLC): 34.2 µM
- TGI (KM12 colon): 20.9 µM
- TGI (M14 melanoma): 12.7 µM
- TGI (NCI-H522 lung): 24.1 µM
- TGI (SK-MEL-5 melanoma): 26.7 µM
- TGI (SN12C renal): 30.8 µM
- TGI (SNB-75 CNS): 27.5 µM
- TGI (SW-620 colon): 9.16 µM

SMILES: COC(=O)c1c[nH]c2cc(OC(C)C)c(OC(C)C)cc2c1=O
- GI50 (EKVX NSCLC): > 100 µM
- TGI (EKVX NSCLC): > 100 µM
- GI50 (HL-60(TB) leukemia): > 100 µM
- TGI (HL-60(TB) leukemia): > 100 µM
- GI50 (HOP-62 NSCLC): 79.6 µM
- TGI (HOP-62 NSCLC): > 100 µM
- GI50 (KM12 colon): > 100 µM
- TGI (KM12 colon): > 100 µM
- GI50 (M14 melanoma): > 100 µM
- TGI (M14 melanoma): > 100 µM
- GI50 (NCI-H522 lung): > 100 µM
- TGI (NCI-H522 lung): > 100 µM
- GI50 (SK-MEL-5 melanoma): > 100 µM
- TGI (SK-MEL-5 melanoma): > 100 µM
- GI50 (SN12C renal): > 100 µM
- TGI (SN12C renal): > 100 µM
- GI50 (SNB-75 CNS): > 100 µM
- TGI (SNB-75 CNS): > 100 µM
- GI50 (SW-620 colon): > 100 µM
- TGI (SW-620 colon): > 100 µM

SMILES: Cn1[nH]cc2ccc3nc4ccccc4c(=O)c3c21
- TGI (EKVX NSCLC): > 100 µM
- TGI (HL-60(TB) leukemia): 90.8 µM
- TGI (HOP-62 NSCLC): > 83.9 µM
- TGI (KM12 colon): > 100 µM
- TGI (M14 melanoma): > 100 µM
- TGI (NCI-H522 lung): 64.9 µM
- TGI (SK-MEL-5 melanoma): 35.1 µM
- TGI (SN12C renal): > 100 µM
- TGI (SNB-75 CNS): 94.5 µM
- TGI (SW-620 colon): > 100 µM
